Measurements published in patent publication US9510581B2, “Bed bug lures” (Rutgers, The State University of New Jersey, priority 2011, dated 2016).

Test system: bed bugs
Assay: Effect of CO2 release rates on bed bug trap efficacy, door arenas
Format: in vivo, Cimex lectularius L.
Details: release rates 200, 300, 400 and 500 ml/min
Description: The two traps were placed at opposite ends equidistant (85 cm) from the center. The experiment was tested over 4 consecutive days. On each day, a different CO2 release rate was used in each arena following a Latin square design. The CO2 source was 5 lb cylinders (Airgas East Inc., Piscataway, N.J., USA). The tested release rates were: 200, 300, 400 and 500 ml/min. The rate was determined as ml of water displaced by CO2 per unit of time using a Bubble-O-Meter (Bubble-O-Meter, Dublin, Ohio, USA). The CO2 was introduced into 240 ml plastic cups that were placed on the pitfall traps (FIG. 1c). Two holes were made on the lid of each plastic cup for CO2 to escape. Fifty bed bug nymphs and adult males were released into the center of each arena and confined with a plastic ring. The bugs were acclimated for approximately 15 hours before starting the treatments. At 1 hour after dark cycle, the plastic ring confining the bugs was removed. The numbers of bed bugs trapped in the pitfall traps and those in the arenas were collected and counted after 8 hours. […] The number of dead or moribund bed bugs in each arena was very low (<5%) in all the bioassays. After counting, dead and moribund bugs were replaced with healthy bugs in each arena. All bugs were placed back to the center of the arenas and confined with plastic rings for 15 hours before starting next bioassay.

Molecule	Attraction of bed bugs to traps baited with CO2
O=C=O [CO2, carbon dioxide]	very attractive to bed bugs regardless of the CO2 release rates

Test system: bed bugs
Assay: Screening of chemical lures in four-choice pitfall trap bioassays
Format: in vivo, Cimex lectularius L.
Details: four-choice bioassays; P<0.05
Description: Bed bugs were collected from an infested house in Lakewood, N.J. They were maintained in plastic containers (4.7 cm height and 5 cm diameter) with folded paper as harborages at 26° C.±1° C., 40±10% relative humidity, a 12:12 hour (L:D) photoperiod, and were deprived of food for the entire duration of the study. All bioassays were conducted within 3 months after bed bugs were collected.
Pitfall traps were used to evaluate the attractiveness of lures. The pitfall trap was an inverted plastic dog bowl (600 ml volume, 18 cm diameter, 6.4 cm deep and 1 mm thickness) (IKEA, Baltimore, Md., USA) (FIG. 1a). The outer wall of the trap was covered with a layer of paper surgical tape (Caring International, Mundelein, Ill., USA), which was painted black with ColorPlace spray paint (WalMart Stores Inc., Bentonville, USA).
Two types of experimental arenas were used: a) wooden door arenas (200 by 76 cm by 6.4 cm) (length by width by height) with wooden floor, and b) plastic tray arenas (80 by 75 by 5 cm) (length by width by height) with bottom lined with brown paper (FIG. 1b). A layer of fluoropolymer resin (DuPont Polymers, Wilmington, Del., USA) was applied to inner walls of the experimental arenas to prevent the bugs from escaping. A layer of this resin was also applied to inner walls of the pitfall traps in a similar fashion to confine the bed bugs that fell into the traps. A filter paper (15 cm diameter) was placed on the floor in the center of each arena, and then a plastic ring (13.3 cm diameter and 6.4 cm height) was placed on the filter paper for confining the bed bugs. A piece of folded cardboard and folded fabric was placed on the filter paper to provide harborages for bed bugs. Six additional paper harborages measuring 5.1 cm long and 3.3 cm wide were placed along the edges of the floor of each wooden arena. Two wooden door arenas were located at least 6 m away from each other in a 15 m long and 9 m wide room at 23-25° C. Two additional wooden door arenas were located in two 4 m long and 2.3 m wide rooms at 24-25° C. These rooms had normal air current through vents on the ceilings or through the open door. In experiments using plastic tray arenas, four arenas were placed simultaneously in a non-ventilated, closed room measuring 4 m long and 2.3 m wide at 24-25° C. A 12:12 hour (L:D) cycle was maintained in all the rooms that were used for bioassays. […]
Twelve known or potential bed bug chemical lures (Table 1) were evaluated for their attractiveness to bed bugs in plastic tray arenas.

Molecule	Trap catch versus corresponding unbaited control
C=CC(O)CCCCC (stereo not drawn) [1-octen-3-ol]	significantly higher number of bugs than their corresponding controls
C[C@H](O)C(=O)O [L-lactic acid]	significantly higher number of bugs than their corresponding controls
CCCCCCCCC=O [Nonanal]	significantly higher number of bugs than their corresponding controls
L-carvone	significantly higher number of bugs than their corresponding controls

Same assay, conditions: four-choice: three lures and an unbaited control per arena; 50 μl lure; plastic tray arena; 50 bugs; 8 hours

Molecule	Percent catch of bed bugs in pitfall traps, Mean (%) ± SE
C=CC(O)CCCCC (stereo not drawn) [1-octen-3-ol]	28.3 ± 2.5a^a %
CC(=O)CCC=C(C)C [6-Methyl-5-Hepten-2-one]	20.9 ± 2.52ab %
OCc1ccccc1 [Benzyl alcohol]	25.1 ± 3.4ab %
C[C@H](O)C(=O)O [L-lactic acid]	25.7 ± 2.7a %
CCCCCCCCC=O [Nonanal]	27.7 ± 3.2a %
CC(O)c1ccccc1 (stereo not drawn) [Styralol]	16.4 ± 2.4bc %
CC(=O)CC/C=C(/C)CCC=C(C)C [Z-Geranyl Acetone]	13.0 ± 2.4a %
L-carvone	27.5 ± 3.5a %

Test system: bed bugs
Assay: Relative attractiveness of four chemical lures in four-choice bioassays
Format: in vivo, Cimex lectularius L.
Details: four traps per arena, each baited with one of four chemicals; four replicates
Description: Four traps in each arena were baited with one of these chemicals. Four arenas were used to obtain four replicates. Percent attraction in multiple comparison experiments involving a control was calculated as: Percent attraction=100×(T−C)/Total, where “T” is the number of bed bugs in the baited pitfall trap and “C” is the number of bed bugs in the non-baited pitfall trap. “Total” is the total number of healthy bugs in each experiment arena at time of recording the bed bug locations. The percent catch is the number of bed bugs found in a pitfall trap divided by number of healthy bed bugs in each arena at the time of recording the results. Positive values indicate attraction to the treatment and negative values indicate repellency; and the values range from −100 (complete repellency) to +100 (complete attraction). For the paired design experiments, mean percent catch were analyzed by paired t-test (P=0.05). Mean percent attractions among the treatments were compared using the non-parametric Kruskal-Wallis tests followed by Tukey's HSD test. The data for Experiment 2.10.1 and 2.10.2 were pooled for analyzing differences among treatments (treatment×day interaction was insignificant from Analysis of Variance test).

Molecule	Percent of bed bugs captured in baited pitfall traps [%]
C=CC(O)CCCCC (stereo not drawn) [1-octen-3-ol]	17.0±1.8
CCCCCCCCC=O [Nonanal]	34.0±4.6

Same assay, conditions: four-choice comparison; P=0.01

Molecule	Attractiveness relative to spearmint oil, 1-octen-3-ol or coriander Egyptian oil
CCCCCCCCC=O [Nonanal]	approximately 2 fold

Test system: bed bugs
Assay: Attractiveness of chemical lures in two-choice pitfall trap bioassays
Format: in vivo, Cimex lectularius L.
Details: baited versus unbaited trap, Kruskal-Wallis / Tukey's HSD
Description: These chemicals were further evaluated to confirm their attractiveness to bed bugs using two-choice assays. The experimental setup and testing procedure were similar to those described above however only two traps were placed at opposite corners of each arena (FIG. 1b). One trap was used as an unbaited control and the other trap received a chemical lure. Each chemical lure was evaluated 8 times over two consecutive days. The baited and non-baited trap positions in each arena were switched on the second day to eliminate any positional effect that could influence the trap catch. Percent attraction in multiple comparison experiments involving a control was calculated as: Percent attraction=100×(T−C)/Total, where “T” is the number of bed bugs in the baited pitfall trap and “C” is the number of bed bugs in the non-baited pitfall trap. “Total” is the total number of healthy bugs in each experiment arena at time of recording the bed bug locations. The percent catch is the number of bed bugs found in a pitfall trap divided by number of healthy bed bugs in each arena at the time of recording the results. Positive values indicate attraction to the treatment and negative values indicate repellency; and the values range from −100 (complete repellency) to +100 (complete attraction). For the paired design experiments, mean percent catch were analyzed by paired t-test (P=0.05). […]

Molecule	Attraction compared among lures (percent attraction)
C=CC(O)CCCCC (stereo not drawn) [1-octen-3-ol]	not significantly different from nonanal
CCCCCCCCC=O [Nonanal]	significantly more attractive than L-lactic acid, and L-carvone
